Patent US8969247B2, “Method for controlling aquatic weeds” (BASF SE, priority 2005, dated 2015)

Legend:
Type in all cases: in vivo
Hydrilla verticillata [1] = assay: Experiment 3: greenhouse static exposure of hydrilla to mesotrione; conditions: 500 ppb
Method: (§1) Greenhouse and shade house tests were initiated to evaluate the effects of HPPD-inhibitors, exemplary topramezone and mesotrione, for the control of aquatic weeds, exemplary for the control of Hydrilla verticillata.
(§2) To begin the experiment, containers were filled and maintained with a volume of 4000 ml of distilled water at room temperature (24° C.). To each container, an established hydrilla plant (potted in sand mixture) was transferred into the water column. Hydrilla plants were selected for uniformity and length of shoot growth (approx 15 cm). Plants were allowed to equilibrate in the columns for 24 hrs prior to herbicide treatment. Experimental treatments included an untreated control and mesotrione at 500 ppb. Treatments were applied to water columns by the use of a pipette. Amount of herbicide applied was based on the total volume of the containers (4000 ml). After initial herbicide treatment, the water columns were gently stirred to ensure uniform distribution. Treatments were arranged as a complete random design with 3 replications. Each container was considered the experimental unit. Greenhouse conditions were maintained at 24/18° C. (day/night) cycle for the duration of the experiment. Natural day length was supplemented with halogen lighting to provide a 14 hr photoperiod. Water level in the containers was periodically checked and maintained at the 4000 ml level for the duration of the study. At the end of four weeks, hydrilla shoot length and fresh weights were recorded.

Hydrilla verticillata [2] = assay: Experiment 2: shade house (outdoor) static exposure of hydrilla to topramezone; conditions: for Hydrilla Shoot Weight: 8 weeks after treatment, dry weight biomass, control 1.5 g, LSD (0.05) 0.2
Method: as §1
Experiment 2 was conducted under shade house (outdoor) conditions. Four 4-liter pots were filled with 15 to 20 cm of sand medium plus amended fertilizer (15 grams Osmocote®^1 19-6-12). Four actively growing Hydrilla verticillata tips (10 to 15 cm in length) were planted 1 to 2 cm deep in medium. The four 4-liter pots were placed in 100-liter containers and covered fully with tap water. Plants were treated 15 days after planting once plant elongation and active growth were observed. There were three 100-liter containers per water treatment (three replications) with four sub-sample 4-liter pots and four Hydrilla verticillata plants per 4-liter pot. Treatments were arranged as a complete random design. ^1 Osmocote®—manufactured by: Scotts-Sierra Horticutural Products Company, Marysville, Ohio 43401 U.S.A
Water treatments of 50 ppb, 75 ppb, 100 ppb, 200 ppb, and 400 ppb of topramezone were installed. Plants were harvested 8 weeks after initial water treatment to determine dry weight biomass reductions compared to the untreated check.

Hydrilla verticillata [3] = assay: Experiment 1: greenhouse static exposure of hydrilla to topramezone; conditions: 500 ppb
Method: as §1
as §2, with “topramezone” for “mesotrione”

[4] = approximately 14 days after treatment

Row | Compound | Visual observations (Hydrilla verticillata [1]; [4]) | Reduction in shoot biomass (Student's t-Test) (Hydrilla verticillata [1]; end of the study (4 weeks)) | Reduction in shoot length (Student's t-Test) (Hydrilla verticillata [1]; end of the study (4 weeks)) | Hydrilla Fresh Weight (Hydrilla verticillata [1]; static exposure, 4 weeks after treatment, control 4.4 g) [grams] | Hydrilla Shoot Length (Hydrilla verticillata [1]; static exposure, 4 weeks after treatment, control 24 cm) [cm] | Hydrilla Shoot Weight (Hydrilla verticillata [2]; 50 ppb) [grams] | Reduction in shoot biomass vs. the untreated control (Hydrilla verticillata [2]; 50 to 400 ppb, end of the study (8 weeks)) | Hydrilla Shoot Weight (Hydrilla verticillata [2]; 75 ppb) [grams] | Hydrilla Shoot Weight (Hydrilla verticillata [2]; 100 ppb) [grams] | Hydrilla Shoot Weight (Hydrilla verticillata [2]; 200 ppb) [grams] | Hydrilla Shoot Weight (Hydrilla verticillata [2]; 400 ppb) [grams] | Visual observations (Hydrilla verticillata [3]; [4]) | Reduction in shoot length and biomass (Student's t-Test) (Hydrilla verticillata [3]; end of the study (4 weeks)) | Effect on hydrilla tissue vs. the untreated control (Hydrilla verticillata [3]; over the course of the study) | Hydrilla Fresh Weight (Hydrilla verticillata [3]; static exposure, 4 weeks after treatment, control 17 g) [grams] | Hydrilla Shoot Length (Hydrilla verticillata [3]; static exposure, 4 weeks after treatment, control 37 cm) [cm]
1 | CS(=O)(=O)c1ccc(C(=O)C2C(=O)CCCC2=O)c([N+](=O)[O-])c1 [mesotrione] | significant bleaching and reddening in the new grown tips | significant reduction in shoot biomass | did not observe a significant reduction in shoot length | 1.4 | 16 |  |  |  |  |  |  |  |  |  |  | 
2 | Cc1c(C(=O)c2cnn(C)c2O)ccc(S(C)(=O)=O)c1C1=NOCC1 [topramezone] |  |  |  |  |  | 1.3 | significant reductions in shoot biomass | 0.8 | 0.8 | 0.7 | 0.6 | significant bleaching and reddening in the new grown tips | significant reductions in both shoot length and biomass | stunting and dieback of hydrilla tissue | 0.3 | 6
